Results published in the NIST ThermoML archive (doi:10.1016/j.jct.2006.08.002).

Experiment: xn = mol fraction of the nth substance listed
Conditions: Fluid (supercritical or subcritical phases), Constant-volume piezometry

CCO [ethanol] + O
Conditions	mass density [kg/m3]
638.15 K, 21420 kPa, x1 = 0.5	233.65
643.15 K, 35160 kPa, x1 = 0.2	451.97
648.15 K, 6600 kPa, x1 = 0.8	52.95
648.15 K, 8080 kPa, x1 = 0.5	55.72
648.15 K, 9890 kPa, x1 = 0.5	68.96
648.15 K, 11430 kPa, x1 = 0.5	84.05
648.15 K, 12050 kPa, x1 = 0.8	114.5
648.15 K, 14470 kPa, x1 = 0.5	116.92
648.15 K, 14680 kPa, x1 = 0.2	89.83
648.15 K, 17440 kPa, x1 = 0.8	187.69
648.15 K, 19110 kPa, x1 = 0.2	137.73
648.15 K, 23400 kPa, x1 = 0.2	221.13
648.15 K, 25670 kPa, x1 = 0.8	305.59
648.15 K, 25860 kPa, x1 = 0.2	285.96
648.15 K, 26120 kPa, x1 = 0.8	310.89
648.15 K, 26740 kPa, x1 = 0.2	307.52
648.15 K, 28730 kPa, x1 = 0.2	349.97
648.15 K, 31420 kPa, x1 = 0.8	365.54
648.15 K, 33230 kPa, x1 = 0.8	380.75
648.15 K, 33660 kPa, x1 = 0.2	420.24
648.15 K, 34330 kPa, x1 = 0.5	383.73
648.15 K, 36760 kPa, x1 = 0.8	403.64
648.15 K, 39020 kPa, x1 = 0.5	419.27
653.15 K, 19550 kPa, x1 = 0.2	137.7
653.15 K, 21530 kPa, x1 = 0.8	242.62
653.15 K, 22750 kPa, x1 = 0.8	259.36
653.15 K, 24460 kPa, x1 = 0.8	282.58
653.15 K, 26990 kPa, x1 = 0.8	310.81
653.15 K, 28660 kPa, x1 = 0.2	324.03
653.15 K, 34300 kPa, x1 = 0.8	380.65
653.15 K, 35620 kPa, x1 = 0.5	383.63
653.15 K, 40110 kPa, x1 = 0.5	417.48
653.15 K, 40890 kPa, x1 = 0.5	422.34
653.15 K, 44100 kPa, x1 = 0.8	437.21
653.15 K, 48080 kPa, x1 = 0.5	461.19
673.15 K, 6990 kPa, x1 = 0.8	52.89
673.15 K, 8570 kPa, x1 = 0.5	55.65
673.15 K, 10540 kPa, x1 = 0.5	68.88
673.15 K, 12250 kPa, x1 = 0.5	83.95
673.15 K, 12980 kPa, x1 = 0.2	67.32
673.15 K, 13010 kPa, x1 = 0.8	114.36
673.15 K, 15740 kPa, x1 = 0.5	116.78
673.15 K, 15940 kPa, x1 = 0.2	89.72
673.15 K, 19310 kPa, x1 = 0.8	187.46
673.15 K, 20680 kPa, x1 = 0.5	170.3
673.15 K, 21310 kPa, x1 = 0.2	137.56
673.15 K, 23620 kPa, x1 = 0.8	242.38
673.15 K, 25130 kPa, x1 = 0.8	259.1
673.15 K, 25740 kPa, x1 = 0.5	233.23
673.15 K, 27230 kPa, x1 = 0.8	282.28
673.15 K, 27430 kPa, x1 = 0.2	220.84
673.15 K, 29500 kPa, x1 = 0.8	305.19
673.15 K, 30040 kPa, x1 = 0.8	310.49
673.15 K, 30620 kPa, x1 = 0.5	292.07
673.15 K, 31230 kPa, x1 = 0.2	285.57
673.15 K, 32510 kPa, x1 = 0.2	307.09
673.15 K, 33730 kPa, x1 = 0.2	323.66
673.15 K, 34050 kPa, x1 = 0.5	325.37
673.15 K, 35510 kPa, x1 = 0.2	349.48
673.15 K, 36420 kPa, x1 = 0.8	365.05
673.15 K, 38700 kPa, x1 = 0.8	380.23
673.15 K, 40850 kPa, x1 = 0.5	383.2
673.15 K, 42660 kPa, x1 = 0.2	420.24
673.15 K, 42950 kPa, x1 = 0.8	403.08
673.15 K, 46620 kPa, x1 = 0.5	418.66
673.15 K, 47140 kPa, x1 = 0.2	451.15
